Assay results published in patent publication US20040029944A1 (priority 2001, published 2004).
Like-named read-outs stand apart in the source and are kept apart here.

System: Phytophthora infestans
Format: in vivo
Details: individual active compound, tomato leaves, protective, evaluated after 6 days

In the case of `Cc1ccc(-c2c(Cl)nc(C#N)n2S(=O)(=O)N(C)C)cc1` [Ia, cyazofamid], the “Efficacy in % of the untreated control” value (0.05 ppm in the spray liquor) is reported as 58%, the “Efficacy in % of the untreated control” value (0.1 ppm in the spray liquor) is reported as 74% and the “Efficacy in % of the untreated control” value (0.2 ppm in the spray liquor) is reported as 84%.
